Assay results as given in ChEMBL document CHEMBL1128797, “Annohexocin, a novel mono-THF acetogenin with six hydroxyls, from Annona muricata (Annonaceae)” (Bioorg Med Chem Lett, 1995).
Converted amounts (≈) assume the structure as drawn.

Key:
A498 = assay: Cytotoxic activity was tested against human A-498 (Kidney carcinoma) cell line; type: functional; conditions: read-out: ED50 (the source's name)
A549 = assay: Cytotoxic activity was tested against human […] cell line A-549 (lung carcinoma); type: functional; conditions: read-out: ED50 (the source's name)
HT-29 = assay: Cytotoxic activity was tested against human HT-29 (colon adenocarcinoma) cell line; type: functional; conditions: read-out: ED50 (the source's name)
MCF7 = assay: Cytotoxic activity was tested against human MCF-7 (breast carcinoma) cell line; type: functional; conditions: read-out: ED50 (the source's name)
MIA PaCa-2 [1] = assay: Cytotoxic activity was tested against humanPAC-2 (pancreatic carcinoma) cell line; type: functional; conditions: Homo sapiens, read-out: ED50 (the source's name)
PC-3 = assay: Cytotoxic activity was tested against human PC-3 (prostate adenocarcinoma) cell line; type: functional; conditions: read-out: ED50 (the source's name)
[2] = Compound was tested for brine shrimp lethality (BST); type: organism-based; conditions: artemia, in vivo
MIA PaCa-2 [3] = assay: Cytotoxic activity was tested against human PAC-2 (pancreatici carcinoma) cell line; type: functional; conditions: read-out: ED50 (the source's name)

SMILES	EC50 (A498) [µg/mL]	EC50 (A549) [µg/mL]	EC50 (HT-29) [µg/mL]	EC50 (MCF7) [µg/mL]	EC50 (MIA PaCa-2 [1]) [µg/mL]	EC50 (PC-3) [µg/mL]	LC50 [2] [µg/mL]	EC50 (MIA PaCa-2 [3]) [µg/mL]
CCCCCCCCCCCCC(O)C1CCC(C(O)CCC(O)CC(O)CC(O)CCCC(O)CC2=CC(C)OC2=O)O1 (stereo not drawn)	2.36 (≈ 3.75 µM)	0.34 (≈ 0.541 µM)	0.78 (≈ 1.24 µM)	2.26 (≈ 3.59 µM)	0.77 (≈ 1.22 µM)	0.0195 (≈ 0.031 µM)	34.4 (≈ 54.7 µM)	–
COc1cccc2c1C(=O)c1c(O)c3c(c(O)c1C2=O)C[C@@](O)(C(=O)CO)C[C@@H]3O[C@H]1C[C@H](N)[C@H](O)[C@H](C)O1 [DOXORUBICIN]	0.0335 (≈ 0.0616 µM)	0.0346 (≈ 0.0637 µM)	0.0896 (≈ 0.165 µM)	0.43 (≈ 0.791 µM)	–	0.33 (≈ 0.607 µM)	–	0.031 (≈ 0.057 µM)
